# Tests used:
# Experiment in all cases: relative viability (nuclei count vs DMSO), 5 days (fraction); higher = more cells survive
# [1] = system: 201T
# Method in brief: (§1)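 One day after seeding in 1536-well plates, lung cancer cell lines were dosed by pin tool. Dosing was either single-drug or a fixed anchor-drug dose plus five library-drug doses (not always all listed) in √10 steps. After 5 days, nuclei were stained in one fix-and-stain step and counted on 4× images, and relative viability is the nuclei count of treated wells over that of vehicle wells, given as the median of duplicate plates.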
# [2] = system: COR-L23
# Method in brief: as §1
# [3] = system: EPLC-272H
# Method in brief: as §1
# [4] = system: H3255
# Method in brief: as §1
# [5] = system: HCC-44
# Method in brief: as §1
# [6] = system: LOU-NH91
# Method in brief: as §1
# [7] = system: NCI-H1563
# Method in brief: as §1
# [8] = system: NCI-H1734
# Method in brief: as §1
# [9] = system: NCI-H1793
# Method in brief: as §1
# [10] = system: NCI-H1993
# Method in brief: as §1
# [11] = system: NCI-H2023
# Method in brief: as §1
# [12] = system: NCI-H2085
# Method in brief: as §1
# [13] = system: NCI-H2347
# Method in brief: as §1
# [14] = system: NCI-H2405
# Method in brief: as §1
# [15] = system: NCI-H3122
# Method in brief: as §1
# [16] = system: NCI-H441
# Method in brief: as §1
# [17] = system: NCI-H520
# Method in brief: as §1
# [18] = system: NCI-H647
# Method in brief: as §1
# [19] = system: PC-14
# Method in brief: as §1
# [20] = system: RERF-LC-KJ
# Method in brief: as §1
compound,measurement,setting,value
O=C(O)c1ccc(-c2c[nH]c3ncc(-c4ccccc4)cc23)cc1C1CCCC1 + C[C@]1(O)C[C@@H](c2nc(-c3ccc4ccc(-c5ccccc5)nc4c3)c3c(N)nccn32)C1 [Linsitinib] (partner 1 µM),relative viability,[1]; first compound 0.04 µM,1.07
same,relative viability,[1]; first compound 0.1265 µM,1.06
same,relative viability,[1]; first compound 0.4 µM,0.979
same,relative viability,[1]; first compound 1.265 µM,0.946
same,relative viability,[2]; first compound 0.04 µM,0.866
same,relative viability,[2]; first compound 0.1265 µM,0.951
same,relative viability,[2]; first compound 0.4 µM,0.771
same,relative viability,[2]; first compound 1.265 µM,0.444
same,relative viability,[3]; first compound 0.04 µM,1.16
same,relative viability,[3]; first compound 0.1265 µM,1.19
same,relative viability,[3]; first compound 0.4 µM,1.42
same,relative viability,[3]; first compound 1.265 µM,0.857
same,relative viability,[4]; first compound 0.04 µM,1
same,relative viability,[4]; first compound 0.1265 µM,0.994
same,relative viability,[4]; first compound 0.4 µM,0.935
same,relative viability,[4]; first compound 1.265 µM,0.909
same,relative viability,[5]; first compound 0.04 µM,0.664
same,relative viability,[5]; first compound 0.1265 µM,0.636
same,relative viability,[5]; first compound 0.4 µM,0.515
same,relative viability,[5]; first compound 1.265 µM,0.57
same,relative viability,[6]; first compound 0.04 µM,0.983
same,relative viability,[6]; first compound 0.1265 µM,0.962
same,relative viability,[6]; first compound 0.4 µM,0.899
same,relative viability,[6]; first compound 1.265 µM,0.788
same,relative viability,[7]; first compound 0.04 µM,1.22
same,relative viability,[7]; first compound 0.1265 µM,1.17
same,relative viability,[7]; first compound 0.4 µM,1.19
same,relative viability,[7]; first compound 1.265 µM,1.18
same,relative viability,[8]; first compound 0.04 µM,0.917
same,relative viability,[8]; first compound 0.1265 µM,0.938
same,relative viability,[8]; first compound 0.4 µM,0.816
same,relative viability,[8]; first compound 1.265 µM,0.823
same,relative viability,[9]; first compound 0.04 µM,0.909
same,relative viability,[9]; first compound 0.1265 µM,0.986
same,relative viability,[9]; first compound 0.4 µM,1.09
same,relative viability,[9]; first compound 1.265 µM,0.889
same,relative viability,[10]; first compound 0.04 µM,0.745
same,relative viability,[10]; first compound 0.4 µM,0.681
same,relative viability,[10]; first compound 1.265 µM,0.753
same,relative viability,[11]; first compound 0.04 µM,0.699
same,relative viability,[11]; first compound 0.1265 µM,0.665
same,relative viability,[11]; first compound 0.4 µM,0.734
same,relative viability,[11]; first compound 1.265 µM,0.676
same,relative viability,[12]; first compound 0.04 µM,0.938
same,relative viability,[12]; first compound 0.1265 µM,1.01
same,relative viability,[12]; first compound 0.4 µM,0.8
same,relative viability,[12]; first compound 1.265 µM,0.644
same,relative viability,[13]; first compound 0.04 µM,0.975
same,relative viability,[13]; first compound 0.1265 µM,1.11
same,relative viability,[13]; first compound 0.4 µM,0.927
same,relative viability,[13]; first compound 1.265 µM,0.67
same,relative viability,[14]; first compound 0.04 µM,0.916
same,relative viability,[14]; first compound 0.1265 µM,0.932
same,relative viability,[14]; first compound 0.4 µM,0.908
same,relative viability,[14]; first compound 1.265 µM,0.603
same,relative viability,[15]; first compound 0.04 µM,0.966
same,relative viability,[15]; first compound 0.1265 µM,1.02
same,relative viability,[15]; first compound 0.4 µM,0.942
same,relative viability,[15]; first compound 1.265 µM,0.838
same,relative viability,[16]; first compound 0.04 µM,0.666
same,relative viability,[16]; first compound 0.1265 µM,0.674
same,relative viability,[16]; first compound 0.4 µM,0.563
same,relative viability,[16]; first compound 1.265 µM,0.531
same,relative viability,[17]; first compound 0.04 µM,0.833
same,relative viability,[17]; first compound 0.1265 µM,1.13
same,relative viability,[17]; first compound 0.4 µM,0.904
same,relative viability,[17]; first compound 1.265 µM,0.712
same,relative viability,[18]; first compound 0.04 µM,1.18
same,relative viability,[18]; first compound 0.1265 µM,1.18
same,relative viability,[18]; first compound 0.4 µM,1.02
same,relative viability,[18]; first compound 1.265 µM,1.03
same,relative viability,[19]; first compound 0.04 µM,0.937
same,relative viability,[19]; first compound 0.1265 µM,0.947
same,relative viability,[19]; first compound 0.4 µM,1.01
same,relative viability,[19]; first compound 1.265 µM,0.798
same,relative viability,[20]; first compound 0.04 µM,0.86
same,relative viability,[20]; first compound 0.1265 µM,0.862
same,relative viability,[20]; first compound 0.4 µM,0.906
same,relative viability,[20]; first compound 1.265 µM,0.807
